Experimental data as given in PubChem BioAssay AID1259407 (Chemical Carcinogenesis Research Information System (CCRIS), 2018).
Calls of active or inactive are those of the source. The rule behind the calls is not given here.

Tested on: CCRIS mutagenicity, Ames/micronucleus/aberration tests
Test: CCRIS mutagenicity studies
[1] = Test System: AMES SALMONELLA TYPHIMURIUM, Strain/Indicator: TA97, Metabolic Activation: HAMSTER, LIVER, S-9, AROCLOR 1254 (10 OR 30%), Method: PREINCUBATION
[2] = Test System: AMES SALMONELLA TYPHIMURIUM, Strain/Indicator: TA97, Metabolic Activation: NONE, Method: PREINCUBATION
[3] = Test System: AMES SALMONELLA TYPHIMURIUM, Strain/Indicator: TA97, Metabolic Activation: RAT, LIVER, S-9, AROCLOR 1254 (10 OR 30%), Method: PREINCUBATION
[4] = Test System: AMES SALMONELLA TYPHIMURIUM, Strain/Indicator: TA98, Metabolic Activation: HAMSTER, LIVER, S-9, AROCLOR 1254 (10 OR 30%), Method: PREINCUBATION
[5] = Test System: AMES SALMONELLA TYPHIMURIUM, Strain/Indicator: TA98, Metabolic Activation: NONE, Method: PREINCUBATION
[6] = Test System: AMES SALMONELLA TYPHIMURIUM, Strain/Indicator: TA98, Metabolic Activation: RAT, LIVER, S-9, AROCLOR 1254 (10 OR 30%), Method: PREINCUBATION
[7] = Test System: AMES SALMONELLA TYPHIMURIUM, Strain/Indicator: TA100, Metabolic Activation: NONE, Method: PREINCUBATION
[8] = Test System: AMES SALMONELLA TYPHIMURIUM, Strain/Indicator: TA1535, Metabolic Activation: HAMSTER, LIVER, S-9, AROCLOR 1254 (10 OR 30%), Method: PREINCUBATION
[9] = Test System: AMES SALMONELLA TYPHIMURIUM, Strain/Indicator: TA1535, Metabolic Activation: NONE, Method: PREINCUBATION
[10] = Test System: AMES SALMONELLA TYPHIMURIUM, Strain/Indicator: TA1535, Metabolic Activation: RAT, LIVER, S-9, AROCLOR 1254 (10 OR 30%), Method: PREINCUBATION

With `C=C1C/C(=C/C)C(=O)O[C@@H]2CCN3CC=C(COC(=O)[C@@]1(O)CO)[C@H]23` the mutagenic call (End Point: IN VITRO CHROMOSOMAL ABERRATIONS, Test System: CHINESE HAMSTER OVARY CELLS, Metabolic Activation: NONE) was “inactive; negative”, the mutagenic call (End Point: IN VITRO CHROMOSOMAL ABERRATIONS, Test System: CHINESE HAMSTER OVARY CELLS, Metabolic Activation: RAT, LIVER, S-9, AROCLOR 1254) was “active; positive; very high frequencies of aberrations were induced in the 25 cells coun” and the mutagenic call [1] was “inactive; negative”. The mutagenic call [2] was “inactive; negative”, the mutagenic call [3] was “inactive; negative” and the mutagenic call [4] was “inactive; negative”. For the same compound, the mutagenic call [5] was “inactive; negative”, the mutagenic call [6] was “inactive; negative” and the mutagenic call (Test System: AMES SALMONELLA TYPHIMURIUM, Strain/Indicator: TA100, Metabolic Activation: HAMSTER, LIVER, S-9, AROCLOR 1254 (10%), Method: PREINCUBATION) was “inactive; negative”. The mutagenic call (Test System: AMES SALMONELLA TYPHIMURIUM, Strain/Indicator: TA100, Metabolic Activation: HAMSTER, LIVER, S-9, AROCLOR 1254 (30%), Method: PREINCUBATION) was “active; positive”, the mutagenic call [7] was “inactive; negative” and the mutagenic call (Test System: AMES SALMONELLA TYPHIMURIUM, Strain/Indicator: TA100, Metabolic Activation: RAT, LIVER, S-9, AROCLOR 1254 (10%), Method: PREINCUBATION) was “inactive; negative”. For the same compound, the mutagenic call (Test System: AMES SALMONELLA TYPHIMURIUM, Strain/Indicator: TA100, Metabolic Activation: RAT, LIVER, S-9, AROCLOR 1254 (30%), Method: PREINCUBATION) was “active; positive”, the mutagenic call [8] was “inactive; negative” and the mutagenic call [9] was “inactive; negative”. For the same compound, the mutagenic call [10] was “inactive; negative”.

`O=C(CCl)c1ccc(Cl)cc1Cl` was tested, and the mutagenic call (Test System: AMES SALMONELLA TYPHIMURIUM, Strain/Indicator: TA98, Metabolic Activation: HAMSTER, LIVER, S-9, AROCLOR 1254, Method: STANDARD PLATE) was “inactive; negative”, the mutagenic call (Test System: AMES SALMONELLA TYPHIMURIUM, Strain/Indicator: TA98, Metabolic Activation: NONE, Method: STANDARD PLATE) was “inactive; negative” and the mutagenic call (Test System: AMES SALMONELLA TYPHIMURIUM, Strain/Indicator: TA98, Metabolic Activation: RAT, LIVER, S-9, AROCLOR 1254, Method: STANDARD PLATE) was “inactive; negative”. For the same compound, the mutagenic call (Test System: AMES SALMONELLA TYPHIMURIUM, Strain/Indicator: TA100, Metabolic Activation: HAMSTER, LIVER, S-9, AROCLOR 1254, Method: STANDARD PLATE) was “inactive; negative”, the mutagenic call (Test System: AMES SALMONELLA TYPHIMURIUM, Strain/Indicator: TA100, Metabolic Activation: NONE, Method: STANDARD PLATE) was “inactive; negative” and the mutagenic call (Test System: AMES SALMONELLA TYPHIMURIUM, Strain/Indicator: TA100, Metabolic Activation: RAT, LIVER, S-9, AROCLOR 1254, Method: STANDARD PLATE) was “inactive; negative”. The mutagenic call (Test System: AMES SALMONELLA TYPHIMURIUM, Strain/Indicator: TA1535, Metabolic Activation: HAMSTER, LIVER, S-9, AROCLOR 1254, Method: STANDARD PLATE) was “inactive; negative”, the mutagenic call (Test System: AMES SALMONELLA TYPHIMURIUM, Strain/Indicator: TA1535, Metabolic Activation: NONE, Method: STANDARD PLATE) was “inactive; negative” and the mutagenic call (Test System: AMES SALMONELLA TYPHIMURIUM, Strain/Indicator: TA1535, Metabolic Activation: RAT, LIVER, S-9, AROCLOR 1254, Method: STANDARD PLATE) was “inactive; negative”. The mutagenic call (Test System: AMES SALMONELLA TYPHIMURIUM, Strain/Indicator: TA1537, Metabolic Activation: HAMSTER, LIVER, S-9, AROCLOR 1254, Method: STANDARD PLATE) was “inactive; negative”, the mutagenic call (Test System: AMES SALMONELLA TYPHIMURIUM, Strain/Indicator: TA1537, Metabolic Activation: NONE, Method: STANDARD PLATE) was “inactive; negative” and the mutagenic call (Test System: AMES SALMONELLA TYPHIMURIUM, Strain/Indicator: TA1537, Metabolic Activation: RAT, LIVER, S-9, AROCLOR 1254, Method: STANDARD PLATE) was “inactive; negative”. The mutagenic call (Test System: MOUSE LYMPHOMA, Strain/Indicator: L5178Y (TK+/TK-), Metabolic Activation: NONE, Method: SUSPENSION/PLATE) was “inactive; negative. reevaluation of results: negative” and the mutagenic call (Test System: MOUSE LYMPHOMA, Strain/Indicator: L5178Y (TK+/TK-), Metabolic Activation: RAT, LIVER, S-9, AROCLOR 1254, Method: SUSPENSION/PLATE) was “inactive; negative. reevaluation of results: negative”.

In the case of `Fc1ccc(F)c2ncccc12`, the mutagenic call (Test System: AMES SALMONELLA TYPHIMURIUM, Strain/Indicator: TA100, Metabolic Activation: RAT LIVER S-9, PHENOBARBITAL AND 5,6-BENZOFLAVONE, Method: PREINCUBATION) is reported as “active; positive” and the mutagenic call (Test System: AMES SALMONELLA TYPHIMURIUM, Strain/Indicator: TA100, Metabolic Activation: RAT, LIVER, S-9, PHENOBARBITAL AND 5,6-BENZOFLAVONE, Method: PREINCUBATION) is reported as “active; positive”.

In the case of `CC(C)=O`, the mutagenic call (End Point: IN VITRO CHROMOSOMAL ABERRATIONS, Test System: CHO-LB CELLS, Metabolic Activation: NONE) is reported as “inactive; negative”, the mutagenic call (End Point: IN VITRO CHROMOSOMAL ABERRATIONS, Test System: CHO-LB CELLS, Metabolic Activation: RAT, LIVER, S-9, AROCLOR 1254) is reported as “inactive; negative” and the mutagenic call [1] is reported as “inactive; negative”. The mutagenic call [2] was “inactive; negative”, the mutagenic call [3] was “inactive; negative” and the mutagenic call (Test System: AMES SALMONELLA TYPHIMURIUM, Strain/Indicator: TA97, Metabolic Activation: RAT, LIVER, S-9, AROCLOR 1254, Method: PREINCUBATION) was “inactive; negative”. For the same compound, the mutagenic call [4] was “inactive; negative”, the mutagenic call [5] was “inactive; negative” and the mutagenic call [6] was “inactive; negative”. For the same compound, the mutagenic call (Test System: AMES SALMONELLA TYPHIMURIUM, Strain/Indicator: TA100, Metabolic Activation: HAMSTER, LIVER, S-9, AROCLOR 1254 (10 OR 30%), Method: PREINCUBATION) was “inactive; negative”, the mutagenic call [7] was “inactive; negative” and the mutagenic call (Test System: AMES SALMONELLA TYPHIMURIUM, Strain/Indicator: TA100, Metabolic Activation: RAT, LIVER, S-9, AROCLOR 1254 (10 OR 30%), Method: PREINCUBATION) was “inactive; negative”. For the same compound, the mutagenic call (Test System: AMES SALMONELLA TYPHIMURIUM, Strain/Indicator: TA102, Metabolic Activation: NONE, Method: PREINCUBATION) was “inactive; negative”, the mutagenic call (Test System: AMES SALMONELLA TYPHIMURIUM, Strain/Indicator: TA102, Metabolic Activation: RAT, LIVER, S-9, AROCLOR 1254, Method: PREINCUBATION) was “inactive; negative” and the mutagenic call [8] was “inactive; negative”. The mutagenic call [9] was “inactive; negative”, the mutagenic call [10] was “inactive; negative” and the mutagenic call (Test System: AMES SALMONELLA TYPHIMURIUM, Strain/Indicator: TA1537, Metabolic Activation: HAMSTER, LIVER, S-9, AROCLOR 1254 (30%), Method: PREINCUBATION) was “inactive; negative”. The mutagenic call (Test System: AMES SALMONELLA TYPHIMURIUM, Strain/Indicator: TA1537, Metabolic Activation: NONE, Method: PREINCUBATION) was “inactive; negative” and the mutagenic call (Test System: AMES SALMONELLA TYPHIMURIUM, Strain/Indicator: TA1537, Metabolic Activation: RAT, LIVER, S-9, AROCLOR 1254 (30%), Method: PREINCUBATION) was “inactive; negative”.
